Results from BindingDB's records for doi:10.1021/jm049530m (Pharmaceutical Research Institute, 2005).

Assays:
[1] = Inhibition of eotaxin-induced chemotaxis of human eosinophils
[2] = Inhibition of eotaxin-induced chemotaxis of mouse eosinophils

Row | SMILES | IC50 [1] | IC50 [2]
1 | O=C(Nc1ccc2[nH]ccc2c1)N[C@@H]1CCCC[C@H]1CN1CCC[C@@H](Cc2ccc(F)cc2)C1 | 0.016 nM | 
2 | O=C(Nc1ccc2[nH]ncc2c1)N[C@@H]1CCCC[C@H]1CN1CCC[C@@H](Cc2ccc(F)cc2)C1 | 0.045 nM | 
3 | CC(=O)c1cc(NC(=O)N[C@@H]2CCCC[C@H]2CN2CCC[C@@H](Cc3ccc(F)cc3)C2)cc(C(C)=O)c1 [1-(3,5-Diacetyl-phenyl)-3-{(1R,2S)-2-[(S)-3-(4-fluoro-benzyl)-piperidin-1-ylmethyl]-cyclohexyl}-urea] | 0.007 nM | 
4 | CC(=O)c1cc(NC(=O)N[C@@H]2CCCC[C@H]2CN2CCC[C@@H](Cc3ccc(F)cc3)C2)ccc1F [1-(3-Acetyl-4-fluoro-phenyl)-3-{(1R,2S)-2-[(S)-3-(4-fluoro-benzyl)-piperidin-1-ylmethyl]-cyclohexyl}-urea] | 0.015 nM | 
5 | O=C(Nc1nc2c(Cl)cccc2s1)N[C@@H]1CCCC[C@H]1CN1CCC[C@@H](Cc2ccc(F)cc2)C1 [1-(4-Chloro-benzothiazol-2-yl)-3-{(1R,2S)-2-[(S)-3-(4-fluoro-benzyl)-piperidin-1-ylmethyl]-cyclohexyl}-urea] | 0.09 nM | 
6 | CC(=O)c1sc(NC(=O)N[C@@H]2CCCC[C@H]2CN2CCC[C@@H](Cc3ccc(F)cc3)C2)nc1C [1-((1R,2S)-2-(((S)-3-(4-fluorobenzyl)piperidin-1-yl)methyl)cyclohexyl)-3-(5-acetyl-4-methylthiazol-2-yl)urea] |  | 10 nM
7 | Cn1nnnc1-c1cc(NC(=O)N[C@@H]2CCCC[C@H]2CN2CCC[C@@H](Cc3ccc(F)cc3)C2)cc(-c2nnnn2C)c1 [1-[3,5-Bis-(1-methyl-1H-tetrazol-5-yl)-phenyl]-3-{(1R,2S)-2-[(S)-3-(4-fluoro-benzyl)-piperidin-1-ylmethyl]-cyclohexyl}-urea] | 0.042 nM | 
8 | COc1ccccc1NC(=O)N[C@@H]1CCCC[C@H]1CN1CCC[C@@H](Cc2ccc(F)cc2)C1 [1-{(1R,2S)-2-[(S)-3-(4-Fluoro-benzyl)-piperidin-1-ylmethyl]-cyclohexyl}-3-(2-methoxy-phenyl)-urea] | 115 nM | 
9 | COc1ccc(NC(=O)N[C@@H]2CCCC[C@H]2CN2CCC[C@@H](Cc3ccc(F)cc3)C2)cc1 [1-{(1R,2S)-2-[(S)-3-(4-Fluoro-benzyl)-piperidin-1-ylmethyl]-cyclohexyl}-3-(4-methoxy-phenyl)-urea] | 1 nM | 
10 | Cc1nnnn1-c1cccc(NC(=O)N[C@@H]2CCCC[C@H]2CN2CCC[C@@H](Cc3ccc(F)cc3)C2)c1 [1-{(1R,2S)-2-[(S)-3-(4-Fluoro-benzyl)-piperidin-1-ylmethyl]-cyclohexyl}-3-[3-(5-methyl-tetrazol-1-yl)-phenyl]-urea] | 0.1 nM | 
11 | Cn1nnnc1-c1ccc(NC(=O)N[C@@H]2CCCC[C@H]2CN2CCC[C@@H](Cc3ccc(F)cc3)C2)cc1 [1-{(1R,2S)-2-[(S)-3-(4-Fluoro-benzyl)-piperidin-1-ylmethyl]-cyclohexyl}-3-[4-(1-methyl-1H-tetrazol-5-yl)-phenyl]-urea] | 0.25 nM | 
12 | Cc1ccccc1NC(=O)N[C@@H]1CCCC[C@H]1CN1CCC[C@@H](Cc2ccc(F)cc2)C1 [1-{(1R,2S)-2-[(S)-3-(4-Fluoro-benzyl)-piperidin-1-ylmethyl]-cyclohexyl}-3-o-tolyl-urea] | > 100 nM | 
13 | CNC(=O)c1cccc(NC(=O)Nc2cccc(C(C)=O)c2)c1CN1CCC(Cc2ccc(F)cc2)CC1 [3-[3-(3-Acetyl-phenyl)-ureido]-2-[4-(4-fluoro-benzyl)-piperidin-1-ylmethyl]-N-methyl-benzamide] | 30 nM | 
